Reference: patent US7125559B2, “Cosmetic or dermatological composition comprising a combination of an elastase inhibitor of the N-acylaminoamide family and at least one myorelaxing agent” (L'Oreal, priority 2001, dated 2006)

How the values were obtained:
[1] = target: T1, human leukocyte elastase (HLE) (Homo sapiens, UniProt P08246); assay: anti-elastase activity in vitro against human leukocyte elastase (HLE), substrate Me-OSAAPV-p-NA, spectrophotometry; format: biochemical
T1 sequence (P08246 30-267): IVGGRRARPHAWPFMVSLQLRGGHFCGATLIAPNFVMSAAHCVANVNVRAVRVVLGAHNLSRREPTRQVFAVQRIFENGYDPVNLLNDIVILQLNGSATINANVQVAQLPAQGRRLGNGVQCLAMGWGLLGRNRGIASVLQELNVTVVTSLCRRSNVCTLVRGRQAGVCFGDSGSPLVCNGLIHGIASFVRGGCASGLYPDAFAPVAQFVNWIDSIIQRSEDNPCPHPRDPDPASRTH
Method: The anti-elastase activity of compounds according to the invention was determined in vitro against human leukocyte elastase (HLE)
(§1) The test was performed in the following manner:
A substrate Me-OSAAPV-p-NA (methyl-O-succinate alanine alanine proline valine-p-nitroanilide) to which is added the HLE (40 milliunits per ml) and 0.1% of the test compound is incubated at 37° C. for 60 minutes.
The % of inhibition of the elastase activity tested is then determined by spectrophotometry.
In the same manner the % of inhibition of the control elastase activity was determined for the compound A at different concentrations

[2] = tested on: surviving human skins treated with human leukocyte elastase (HLE); assay: ex vivo activity on fresh sections of surviving human skins treated with HLE, morphometry of elastin fibres (Example 4); details: HLE 10 μg/ml + 0.1% test compound, 2 hours at 20° C.
Method: (§2) The ex vivo activity of the compound of Example 2 was evaluated on surviving human skins treated with human leukocyte elastase (HLE).
(§3) The test is performed in the following manner:
Fresh sections of human skins derived from 2 different donors are treated for 2 hours at 20° C. with 20 μl of buffer solution (pH 7.4) containing optionally 10 μg/ml of HLE and optionally 0.1% of the test compound, optionally previously dissolved in ethanol.
The elastin fibres are stained blue with (+) catechol and quantified morphometrically by computer-assisted image analysis. The percentage of mean dermal surface occupied by the elastin fibres is thus evaluated

[3] = tested on: surviving human skins treated with human leukocyte elastase (HLE); assay: ex vivo activity on human skin fragments kept in survival 10 days with HLE, morphometry of elastin fibres (Example 5); details: three donors, mean; HLE 0.5 μg/ml + 5 μl compound at 0.2% in ethanol every two days, 10 days at 37° C.; HLE alone 5.1%, untreated 7.4%
Method: as §2, §1
(§4) Fragments of normal human skin derived from three different donors are deposited in inserts placed in culture wells. Culture medium supplemented with antibiotics is added to the bottom of the wells. Passage by slow diffusion occurs between the two compartments through the intermediary of a porous membrane (pore size: 12 μm).
(§5) The culture medium is renewed every three days.
Optionally 0.5 μg of HLE per ml of culture medium is added to the skin fragments.
5 μl of test compound previously dissolved at 0.2% by weight in ethanol are also added every two days.
The skins are maintained in survival for 10 days at 37° C.,
(§6) The elastin fibres are stained blue with (+) catechol and quantified morphometrically by computer-assisted image analysis. The mean percentage dermal surface area occupied by the elastin fibres was thus evaluated.

[4] = tested on: surviving human skins irradiated by UVA; assay: activity on surviving human skins irradiated by UVA (8 J/cm2), morphometry of elastin fibres and collagen (Example 6); details: UVA 8 J/cm2 + 5 μl compound at 0.2% in ethanol every two days, 7 days at 37° C.
Method: The activity of the compound of Example 2 was evaluated on irradiated surviving human skins irradiated by UVA (8 J/cm2).
as §3
as §4, with “four” for “three”
as §5
Every two days 5 μl of the test compound previously dissolved at 0.2% in ethanol are added to the skin fragments.
The skins are maintained in survival for 7 days at 37° C.
The skins are irradiated once only at 8 J/cm2 (Vilbert-Lourmat RMX-3W lamp).
as §6

inhibition of the elastase activity (in words) ([1]; even at low concentration)	SMILES	% surface occupied by elastin fibres ([2]; Skin 1, HLE alone 4.85%, untreated 12.7%)	% surface occupied by elastin fibres ([2]; Skin 2, HLE alone 6.85%, untreated 15.25%)	% surface occupied by elastin fibres [3]	Morphometric analysis of elastin fibres (superficial dermis) ([4]; UVA alone 3.9%, untreated 6.75%)	Morphometric analysis of collagen (superficial dermis) ([4]; UVA alone 81%, untreated 87%)	% inhibition of elastase activity tested ([1]; compound concentration 0.1%, HLE 40 milliunits per ml, 37° C., 60 minutes)
strong inhibition	CC(=O)N(c1cccc(C(F)(F)F)c1)C(C(=O)NCC(=O)O)C(C)C (stereo not shown) [Compound A, {2-[acetyl-(3-trifluoromethyl-phenyl)-amino]-3-methyl-butyrylamino}acetic acid]	13.95%	11.85%	7.1%	6.8%	92%	
	CCOC(=O)CNC(=O)C(C(C)C)N(Cc1ccccc1)C(=O)CP(=O)(OCC)OCC (stereo not shown) [Compound B, (2-{benzyl-[(diethoxy-phosphoryl)-acetyl]-amino}-3-methyl-butyrylamino) ethyl acetate]						17%
